According to ChEMBL document CHEMBL1201862, “PubChem BioAssay data set” (2004):
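All cell lines were grown in 96-well plates and treated with compound for 48 hours. GI50 marks 50% less growth.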 Active and inactive are the calls of the source. Cut-off read from the data, not from the text of the source: active = GI50 up to about 1.1 µM and inactive = higher.

What was measured:
Experiment in all cases: NCI anticancer screen, dose series, 48 h
CCRF-CEM = test system: CCRF-CEM
RPMI-8226 = test system: RPMI-8226
TK-10 = test system: TK-10
UACC-257 = test system: UACC-257
K562 = test system: K562
SF-268 = test system: SF-268
SNB-19 = test system: SNB-19
Malme-3M = test system: Malme-3M
OVCAR-5 = test system: OVCAR-5
NCI-H23 = test system: NCI-H23
SK-OV-3 = test system: SK-OV-3
SK-MEL-28 = test system: SK-MEL-28
M14 = test system: M14
UACC-62 = test system: UACC-62
SK-MEL-2 = test system: SK-MEL-2
HT-29 = test system: HT-29
HL-60 = test system: HL-60
HCT-116 = test system: HCT-116
SN12C = test system: SN12C
SNB-75 = test system: SNB-75

Measured: GI50

COc1ccc2c(c1)CCCN2CCCCCCCCCCN(CCC(C)C)CCC(C)C
inactive: CCRF-CEM 7.29 µM | RPMI-8226 2.26 µM | TK-10 16.4 µM | UACC-257 14.9 µM | K562 4.24 µM | SF-268 11.6 µM | SNB-19 13.9 µM | Malme-3M 13.4 µM | OVCAR-5 14.9 µM | NCI-H23 3.25 µM | SK-OV-3 19.3 µM | SK-MEL-28 13.6 µM | M14 13.3 µM | UACC-62 12.2 µM | SK-MEL-2 9.4 µM | HT-29 4.65 µM | HL-60 2.9 µM

COc1cc2c(cc1OC)C(=O)/C(=C/c1ccc(N(C)C)cc1)CC2
active: SK-MEL-2 0.962 µM
inactive: CCRF-CEM 9.77 µM | RPMI-8226 > 10 µM | TK-10 > 10 µM | HCT-116 > 10 µM | UACC-257 3.38 µM | K562 > 10 µM | SF-268 > 10 µM | SNB-19 > 10 µM | Malme-3M > 10 µM | OVCAR-5 > 10 µM | NCI-H23 > 10 µM | SK-OV-3 > 10 µM | SK-MEL-28 > 10 µM | M14 > 10 µM | SN12C > 10 µM | UACC-62 > 10 µM | HT-29 > 10 µM | HL-60 > 10 µM

CCC(C)[C@H]1C(=O)N=C(N)N1C(=O)OCc1ccccc1 (some centres not stated)
inactive: RPMI-8226 > 100 µM | TK-10 > 100 µM | HCT-116 > 100 µM | UACC-257 > 100 µM | K562 > 100 µM | SF-268 > 100 µM | SNB-19 > 100 µM | Malme-3M > 100 µM | OVCAR-5 > 100 µM | SNB-75 > 100 µM | NCI-H23 > 100 µM | SK-MEL-28 > 100 µM | SN12C > 100 µM | UACC-62 > 100 µM | SK-MEL-2 > 100 µM | HT-29 > 100 µM | HL-60 > 100 µM

O=C1CCCSC(=O)N1Cc1ccccc1
active: SNB-75 0.0515 µM
inactive: CCRF-CEM > 100 µM | TK-10 > 100 µM | HCT-116 > 100 µM | UACC-257 > 100 µM | SF-268 > 100 µM | SNB-19 > 100 µM | Malme-3M > 100 µM | OVCAR-5 > 100 µM | NCI-H23 > 100 µM | SK-OV-3 > 100 µM | SK-MEL-28 > 100 µM | M14 > 100 µM | SN12C > 100 µM | UACC-62 > 100 µM | SK-MEL-2 > 100 µM | HT-29 > 100 µM | HL-60 > 100 µM

CC(=O)O[C@H]1C=CC(=O)C(C)CC1C (some centres not stated)
inactive: CCRF-CEM 60.1 µM | TK-10 > 100 µM | HCT-116 44.8 µM | UACC-257 > 100 µM | K562 > 100 µM | SF-268 > 100 µM | SNB-19 > 100 µM | Malme-3M > 100 µM | OVCAR-5 > 100 µM | SNB-75 > 100 µM | NCI-H23 75.9 µM | SK-OV-3 > 100 µM | SK-MEL-28 > 100 µM | M14 > 100 µM | SN12C > 100 µM | UACC-62 > 100 µM | SK-MEL-2 > 100 µM | HT-29 > 100 µM | HL-60 64.9 µM

CC(=O)O/N=C/c1c2ccccc2cc2ccccc12
inactive: CCRF-CEM > 100 µM | RPMI-8226 51.6 µM | TK-10 83 µM | HCT-116 41.6 µM | UACC-257 > 100 µM | K562 85.7 µM | SF-268 61.1 µM | SNB-19 50.5 µM | Malme-3M 47 µM | OVCAR-5 > 100 µM | SNB-75 22.1 µM | NCI-H23 76.6 µM | SK-OV-3 22.2 µM | SK-MEL-28 89.3 µM | M14 > 100 µM | SN12C 65.3 µM | UACC-62 40.9 µM | HT-29 57.7 µM | HL-60 > 100 µM

[O-][S+]1c2ccccc2N=C(c2ccc(Cl)cc2)CC1c1cccs1 (configuration not stated)
inactive: CCRF-CEM 17.3 µM | RPMI-8226 17 µM | TK-10 39.3 µM | HCT-116 10.9 µM | UACC-257 23.2 µM | K562 9.25 µM | SF-268 29.2 µM | SNB-19 21.1 µM | Malme-3M 57.8 µM | OVCAR-5 16.7 µM | SNB-75 46.7 µM | NCI-H23 23.8 µM | SK-OV-3 28.9 µM | SK-MEL-28 19.3 µM | M14 15.5 µM | SN12C 19 µM | UACC-62 15.7 µM | HT-29 17.3 µM | HL-60 14.2 µM

COc1cc(-c2cc(-c3ccccc3)nc(-c3c(OC)ccc4c(C)cc(=O)oc34)c2)cc(OC)c1OC
inactive: CCRF-CEM > 100 µM | TK-10 > 100 µM | HCT-116 > 100 µM | UACC-257 > 100 µM | K562 > 100 µM | SF-268 > 100 µM | SNB-19 > 100 µM | Malme-3M > 100 µM | SNB-75 > 100 µM | NCI-H23 > 100 µM | SK-OV-3 > 100 µM | M14 > 100 µM | SN12C > 100 µM | UACC-62 > 100 µM | SK-MEL-2 > 100 µM | HT-29 > 100 µM | HL-60 13.6 µM

O=C(NCCCOC(=O)CCCCCCCCC(=O)OCCCNC(=O)NC(=O)c1c[nH]c(=O)[nH]c1=O)NC(=O)c1c[nH]c(=O)[nH]c1=O
inactive: CCRF-CEM > 100 µM | RPMI-8226 > 100 µM | TK-10 > 100 µM | HCT-116 > 100 µM | UACC-257 > 100 µM | K562 > 100 µM | SF-268 > 100 µM | SNB-19 > 100 µM | Malme-3M > 100 µM | OVCAR-5 > 100 µM | NCI-H23 45.1 µM | SK-OV-3 > 100 µM | SK-MEL-28 > 100 µM | M14 > 100 µM | SN12C > 100 µM | UACC-62 > 100 µM | SK-MEL-2 > 100 µM | HL-60 > 100 µM

C/C(=N/NC(=O)CC(=O)N(C(=O)c1ccccc1Cl)c1ccc(C)cc1)c1cc2ccccc2oc1=O
inactive: CCRF-CEM > 100 µM | TK-10 95.5 µM | HCT-116 > 100 µM | UACC-257 > 100 µM | K562 > 100 µM | SF-268 > 100 µM | SNB-19 > 100 µM | Malme-3M > 100 µM | OVCAR-5 > 100 µM | SNB-75 31 µM | NCI-H23 45.5 µM | SK-MEL-28 > 100 µM | M14 65.3 µM | SN12C > 100 µM | UACC-62 > 100 µM | HT-29 > 100 µM | HL-60 > 100 µM

O=S(OC12CC3CC(CC(C3)C1)C2)c1cc(Cl)cc(Cl)c1OCc1ccccc1 (configuration not stated)
inactive: CCRF-CEM > 100 µM | TK-10 > 100 µM | HCT-116 > 100 µM | UACC-257 > 100 µM | K562 > 100 µM | SF-268 > 100 µM | SNB-19 > 100 µM | Malme-3M > 100 µM | OVCAR-5 > 100 µM | SNB-75 > 100 µM | NCI-H23 > 100 µM | SK-OV-3 > 100 µM | SK-MEL-28 > 100 µM | M14 > 100 µM | SN12C > 100 µM | UACC-62 > 100 µM | SK-MEL-2 > 100 µM | HT-29 > 100 µM | HL-60 > 100 µM

CC1=C(C(=O)Nc2ccc(Cl)c(Cl)c2)C(c2ccc([N+](=O)[O-])cc2)C(C(=O)Nc2ccc(Cl)c(Cl)c2)=C(C)N1
inactive: RPMI-8226 1.45 µM | TK-10 7.18 µM | HCT-116 1.55 µM | UACC-257 2.51 µM | SF-268 3.38 µM | SNB-19 4.65 µM | Malme-3M 2.57 µM | OVCAR-5 3.23 µM | SNB-75 3.84 µM | NCI-H23 2.21 µM | SK-OV-3 4.31 µM | SK-MEL-28 2.44 µM | M14 1.85 µM | SN12C 2.34 µM | UACC-62 1.7 µM | SK-MEL-2 2.1 µM | HT-29 2.42 µM
active: K562 1.07 µM | HL-60 0.361 µM

O=c1c2c3c(sc2nc2n1N=C(c1ccc([N+](=O)[O-])cc1)CS2)CCCC3
inactive: CCRF-CEM > 100 µM | RPMI-8226 > 100 µM | TK-10 42.2 µM | HCT-116 > 100 µM | UACC-257 > 100 µM | K562 > 100 µM | SF-268 > 100 µM | Malme-3M > 100 µM | OVCAR-5 > 100 µM | SNB-75 > 100 µM | NCI-H23 > 100 µM | SK-OV-3 > 100 µM | SK-MEL-28 > 100 µM | SN12C > 100 µM | UACC-62 > 100 µM | HT-29 > 100 µM | HL-60 > 100 µM

O=C1CC2C(=O)N(Cc3ccccc3)C1C(S(=O)(=O)c1ccccc1)C2S(=O)(=O)c1ccccc1 (configuration not stated)
inactive: RPMI-8226 3.08 µM | TK-10 1.78 µM | HCT-116 4.68 µM | UACC-257 1.61 µM | K562 2.09 µM | SF-268 3.44 µM | Malme-3M 2 µM | OVCAR-5 18 µM | SNB-75 7.28 µM | NCI-H23 3.25 µM | SK-OV-3 17.6 µM | SK-MEL-28 1.9 µM | M14 1.92 µM | SN12C 1.68 µM | UACC-62 1.84 µM | HT-29 2.17 µM | HL-60 1.62 µM
active: CCRF-CEM 1.11 µM

O=S(=O)(Nc1ccccc1)c1ccc(-c2c3nc(c(-c4ccc(S(=O)(=O)Nc5ccccc5)cc4)c4ccc([nH]4)c(-c4ccc(S(=O)(=O)Nc5ccccc5)cc4)c4nc(c(-c5ccc(S(=O)(=O)Nc6ccccc6)cc5)c5ccc2[nH]5)C=C4)C=C3)cc1
inactive: CCRF-CEM > 31.6 µM | TK-10 > 31.6 µM | HCT-116 > 31.6 µM | UACC-257 26.4 µM | K562 > 31.6 µM | SF-268 > 31.6 µM | SNB-19 14.1 µM | Malme-3M > 31.6 µM | OVCAR-5 > 31.6 µM | SNB-75 11.5 µM | NCI-H23 > 31.6 µM | SK-OV-3 > 31.6 µM | SK-MEL-28 > 10 µM | M14 12.6 µM | SN12C > 31.6 µM | UACC-62 > 31.6 µM | SK-MEL-2 > 31.6 µM | HT-29 > 31.6 µM | HL-60 > 31.6 µM
